Values of other authors in US9993445B1, “Oral solution comprising atomoxetine hydrochloride and methods thereof” (TAHO Pharmaceuticals Ltd., priority 2016, dated 2018).
Counter-ions that a name gives are not always drawn.

Settings: room temperature

CNCCC(Oc1ccccc1C)c1ccccc1 (single isomer, unassigned; (-)) [Atomoxetine hydrochloride, (−)-N-methyl-3-phenyl-3 (o-tolyloxy) propylamine]
soluble in water: 27.8 mg/mL
